Data published in patent publication US20160296722A1, “METHOD OF TREATING DEPRESSION” (Korea Bio Medical Science Institute, priority 2015, published 2016).

Key:
pERK = assay: ERK phosphorylation in brain, Western blot; format: in vivo, mice; details: mouse brain after FST, 10 mg/kg orally once daily for 3 weeks, p<0.05
Description: (§1) Immediately after the FST, mice were sacrificed, brains were rapidly removed, and frozen in liquid nitrogen. Samples were dissected and homogenized in ice-cold buffer supplemented with 0.2 mM DTT, 0.5 mM sodium vanadate, and protease inhibitors. NaCl was then added to a final concentration of 0.45 M, and homogenates were centrifuged at 15,000×g for 30 min. Supernatants were collected and stored at −70° C. Samples were subjected to Western blot analysis for ERK, phosphorylated-ERK (PERK), BDNF, and GAPDH. Supernatant samples obtained as described above were heated at 95° C. for 5min and briefly cooled on ice. After centrifugation, 50 μg aliquots were resolved by 12% SDS-polyacrylamide gel electrophoresis. Proteins were then transferred to nitrocellulose membranes, which were blocked for 2 h with phosphate-buffered saline (PBS) containing Tween-20 (PBST) containing 6% bovine serum albumin. Membranes were incubated overnight at 4° C. with primary antibodies diluted 1:500 with PBST, and washed nine times for 10 min with PBST. For protein detection, blots were incubated with secondary antibodies conjugated peroxidase (1:5000) for 2 h. Finally, protein bands were visualized using an enhanced chemiluminescence kit (GE Healthcare, Piscataway, N.J., USA) according to the manufacturer's instructions.

BDNF = BDNF expression in brain, Western blot; format: in vivo, mice; details: mouse brain after FST, 10 mg/kg orally once daily for 3 weeks, versus untreated control group
Description: as §1

DA = DA level in brain after FST (DA ELISA kit); format: in vivo, mice; details: mouse brain after FST, 10 mg/kg orally once daily for 3 weeks, versus untreated control group, p<0.05
Description: Supernatants were collected and stored at −70° C.

ICR mice = assay: Forced swimming test (FST), immobility time; format: in vivo; details: male ICR mice, mean±SEM
Description: Male ICR mice (3 weeks old) weighing 10-12 g were purchased from the Dae-Han Experimental Animal Center (Daejeon, Republic of Korea), and subsequently maintained at the College of Korean Medicine, Kyung Hee University. Animals were housed 5-10% in as laminar air-flow room maintained at a temperature of 22±1° C. and a relative humidity of 55±10% under a 12:12 L/D cycle light (on at 7:00 h) throughout the study. Food and water were provided ad libitum. All manipulations were carried out between 9:00 and 16:00 h and no animal was used more than once.
Mice were exposed to JDS music daily for 3 weeks. All experiments were carried out in a quite environment other sounds.
After measuring immobility times, 10 mice were allocated to each of the five study groups in an immobility time-matched manner. […] The FST was performed as the end of the 3 weeks administration period. During the 6 min FST, immobility times were measured as described by Porsolt et al. (1977). The FST apparatus consisted of two Plexiglas cylinders (height: 25 cm, diameter: 10 cm) placed side by side in a Makrolon cage filled with water at 23-25° C. […] Total duration of immobility, during the 4 min period from 2 to 6 min was recorded. […]

For CNCCC(Oc1ccc(C(F)(F)F)cc1)c1ccccc1 (centres unmarked) [fluoxetine, Fluoxetine], the pERK level (pERK) was “significantly elevated pERK levels”, the BDNF level (BDNF) was “significantly increased BDNF levels” and the “DA level in brain” value (DA) was “significantly higher than in the untreated control group”. For the same molecule, the “Mean immobility time after the 3-week treatment period” value (ICR mice; 10 mg/kg orally once daily for 3 weeks, untreated control 199.3±11.8 s, p<0.05) was 60.4 ± 14.3 s and the “Mean baseline immobility time” value (ICR mice; baseline (0 day), before treatment) was 94.2 ± 23.9 s.
